Data on 20 compounds can be found in doi:10.1101/2020.03.05.979567v1 (biorxiv, 2020).

Assay [1] has as its target T1, recombinant mouse Nape-pld (Mus musculus, UniProt Q8BH82).
T1 sequence (Q8BH82 1-396): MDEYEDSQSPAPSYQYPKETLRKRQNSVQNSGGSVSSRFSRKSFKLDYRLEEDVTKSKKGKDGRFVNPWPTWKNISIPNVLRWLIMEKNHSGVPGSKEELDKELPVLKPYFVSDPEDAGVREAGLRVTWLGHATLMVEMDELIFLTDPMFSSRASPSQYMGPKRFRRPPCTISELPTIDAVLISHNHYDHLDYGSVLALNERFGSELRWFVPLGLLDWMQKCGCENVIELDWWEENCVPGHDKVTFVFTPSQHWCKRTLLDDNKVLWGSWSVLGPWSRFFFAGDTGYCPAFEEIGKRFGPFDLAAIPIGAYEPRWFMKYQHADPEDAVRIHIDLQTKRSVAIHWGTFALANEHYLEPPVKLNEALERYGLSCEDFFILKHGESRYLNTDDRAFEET
Nature of the assay: PED-A1 hydrolysis, fluorescence, initial rate. It counts as biochemical.

The target in assay [2] is T1, recombinant mouse Nape-pld. Description: biochemical.
Assay [3] addresses T1, recombinant mouse Nape-pld. Description: biochemical. This is another data set of the same source.
Assay [4] addresses NAPE-PLD (endogenous, HEK293 cells) (Homo sapiens, UniProt Q6IQ20). Nature of the assay: PED-A1 hydrolysis in intact HEK293 cells, fluorescence. The class given is cell-based. The conditions noted are these: 30 min preincubation, 3.5 μM PED-A1.
The target of assay [5] is T2, Streptomyces chromofuscus phospholipase D (ScPld) (Streptomyces chromofuscus, UniProt Q8KRU5).
T2 sequence (Q8KRU5 47-556): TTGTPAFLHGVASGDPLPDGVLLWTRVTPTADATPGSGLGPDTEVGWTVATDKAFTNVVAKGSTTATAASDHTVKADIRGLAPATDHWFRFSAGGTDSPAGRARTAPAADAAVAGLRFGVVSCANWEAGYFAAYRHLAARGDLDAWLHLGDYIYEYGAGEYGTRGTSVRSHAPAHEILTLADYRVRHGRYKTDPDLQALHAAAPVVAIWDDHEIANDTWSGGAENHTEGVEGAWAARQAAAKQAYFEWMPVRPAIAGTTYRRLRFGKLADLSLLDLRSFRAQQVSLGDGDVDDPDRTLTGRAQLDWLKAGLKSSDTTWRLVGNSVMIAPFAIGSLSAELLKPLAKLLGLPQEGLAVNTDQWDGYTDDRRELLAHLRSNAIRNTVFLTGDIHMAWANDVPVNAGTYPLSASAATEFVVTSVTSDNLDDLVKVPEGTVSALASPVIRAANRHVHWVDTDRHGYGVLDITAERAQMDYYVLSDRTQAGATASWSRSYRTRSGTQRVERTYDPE
Description: PED-A1 hydrolysis, fluorescence. It counts as biochemical.

The target of assay [6] is T1, recombinant mouse Nape-pld. Nature of the assay: PED-A1 hydrolysis kinetics, fluorescence. The class given is biochemical.
Assay [7] deals with T1, recombinant mouse Nape-pld. Nature of the assay: biochemical. This is another data set of the same source.

Bounds are passed on as bounds.

Sequence of NAPE-PLD (endogenous, HEK293 cells) (Q6IQ20 whole entry): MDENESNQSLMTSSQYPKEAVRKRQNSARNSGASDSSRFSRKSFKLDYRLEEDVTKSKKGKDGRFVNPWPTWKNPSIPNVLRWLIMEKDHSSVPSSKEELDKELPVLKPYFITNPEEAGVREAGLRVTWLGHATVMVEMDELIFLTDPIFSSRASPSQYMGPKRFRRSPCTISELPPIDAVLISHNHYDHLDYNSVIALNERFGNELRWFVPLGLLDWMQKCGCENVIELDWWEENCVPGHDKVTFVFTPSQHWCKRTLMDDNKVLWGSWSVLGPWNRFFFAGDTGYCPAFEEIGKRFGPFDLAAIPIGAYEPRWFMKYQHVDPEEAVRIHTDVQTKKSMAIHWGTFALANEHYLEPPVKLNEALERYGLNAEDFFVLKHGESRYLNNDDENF

Consider `Oc1ccc(Cl)cc1Cc1cc(Cl)ccc1O` [Inh 17, Dichlorophen], for which the 50% inhibitory concentration (IC50) (in general, the concentration needed to halve the response being measured) in assay [1] turned out to be 23.2 µM.

As to `Clc1cc(Cl)c(Cl)c(Cc2cc(Cl)cc(Cl)c2Cl)c1` [Inh 15, CAS 2888-15-5], the concentration for half-maximal inhibition (IC50) in assay [2] was over 200 µM.

In the case of `CCCCC(=O)O[C@H]1CC[C@H]2[C@@H]3CCc4cc(O)ccc4[C@H]3CC[C@]12C` [Inh 7, estradiol valerate], the half-inhibitory concentration (IC50) in assay [1] is 7.8 µM.

Turning to `[H]/N=C(\N/C(=N/[H])NCCCCCCNC(=N)NC(=N)Nc1ccc(Cl)cc1)Nc1ccc(Cl)cc1` [Inh 10, Chlorhexidine], the half-maximal inhibitory concentration (IC50) in assay [3] turned out to be 10.4 µM.

For `Cc1cc2c(C(C)C)c(O)c(O)c(C=O)c2c(O)c1-c1c(C)cc2c(C(C)C)c(O)c(O)c(C=O)c2c1O` [Inh 6, Gossypol], the half-inhibitory concentration (IC50) in assay [3] is 6.9 µM.

`Oc1c(Cl)cc(Cl)cc1Cc1cc(Cl)cc(Cl)c1O` [Inh 21, CAS 1940-43-8]: in assay [1], the half-inhibitory concentration (IC50) amounted to 26.5 µM.

Consider `Oc1c(Cl)cc(Cl)cc1C(c1cc(Cl)cc(Cl)c1O)C(Cl)(Cl)Cl` [Inh 23, CAS 92167-59-4], for which, in assay [1], the IC50 is 2.8 µM.

Consider `CC(C)=CCC[C@]1(C)C=Cc2c(O)c3c(c(CC=C(C)C)c2O1)O[C@]12C(=C[C@@H]4C[C@H]1C(C)(C)O[C@@]2(C/C=C(/C)C(=O)O)C4=O)C3=O` [Inh 9, Gambogic acid], for which, in assay [3], the IC50 was found to be 9.9 µM.

As for `COc1ccc(Cl)cc1Cc1cc(Cl)ccc1OC` [Inh 19, CAS 7569-57-5], the IC50 in assay [2] is over 200 µM.

For the compound `CC1=C(O)C(=O)C=C2C1=CC=C1[C@@]2(C)CC[C@@]2(C)[C@@H]3C[C@](C)(C(=O)O)CC[C@]3(C)CC[C@]12C` [Inh 5, Tripterine], the half-maximal inhibitory concentration (IC50) in assay [3] was found to be 3 µM.

As for `COc1c(O)cc2oc3cc(O)c(CC=C(C)C)c(O)c3c(=O)c2c1CC=C(C)C` [Inh 3, Mangostin], in assay [3], the IC50 is 2.8 µM.

Consider `Oc1c(Cl)cc(Cl)cc1Sc1cc(Cl)cc(Cl)c1O` [Inh 2, bithionol], for which the 50% inhibitory concentration (IC50) is 2.1 µM in assay [3], 10.7 µM in assay [4] and over 200 µM in assay [5].

As for `Oc1cc(Cl)ccc1Oc1ccc(Cl)cc1Cl` [Inh 25, triclosan], the IC50 in assay [1] stood at 62.9 µM.

Turning to `COc1ccc(C(=O)c2ccccc2O)c(O)c1` [Inh 14, dioxybenzone], the half-maximal inhibitory concentration (IC50) in assay [3] came out at 19.1 µM.

For `CC(C)(c1cc(Cl)c(O)c(Cl)c1)c1cc(Cl)c(O)c(Cl)c1` [Inh 24, CAS 79-95-8], the concentration for half-maximal inhibition (IC50) in assay [1] is 64.7 µM.

In the case of `Oc1c(Br)cc(Cl)cc1Cc1cc(Cl)cc(Br)c1O` [Inh 22, CAS 15435-29-7], the IC50 in assay [1] was 5 µM.

As to `O=c1c2ccccc2[se]n1-c1ccccc1` [Inh 4, ebselen], the 50% inhibitory concentration (IC50) in assay [3] was found to be 2.8 µM.

With `Oc1ccc(Cl)cc1Sc1cc(Cl)ccc1O` [Inh 18, Fenticlor], the half-inhibitory concentration (IC50) in assay [1] was determined as 26.8 µM.

For `Oc1c(Cl)cc(Cl)c(Cl)c1Cc1c(O)c(Cl)cc(Cl)c1Cl` [Inh 1, hexachlorophene], the half-inhibitory concentration (IC50) was 1.6 µM in assay [3], about 2 µM in assay [1], 9.8 µM in assay [4] and 149 µM in assay [5]. For the same compound, in assay [6], the inhibition constant Ki (usually the equilibrium dissociation constant of an inhibitor or competing ligand from its target) was about 2 µM.

For the compound `O=C(Nc1ccc(Cl)cc1)Nc1ccc(Cl)c(Cl)c1` [Inh 26, triclocarban], the half-maximal inhibitory concentration (IC50) in assay [7] was over 200 µM.
